Laboratory results taken from paper PMC10933344, “A lncRNA Dleu2-encoded peptide relieves autoimmunity by facilitating Smad3-mediated Treg induction” (EMBO Reports, 2024).

How the values were obtained:
[1] = system: Foxp3 CNS1-luciferase reporter / Smad3; test: Foxp3 CNS1-luciferase reporter assay in NIH/3T3 cells; assay type: cell-based, mouse; conditions: 20 μM
[2] = system: CD4+ T cells in CNS of EAE mice; test: Flow cytometry of CNS T cells of treated EAE mice; assay type: in vivo, mouse; conditions: 100 μg i.v.
Method: Figure 5 Dleu2-17aa attenuates EAE by promoting Treg cells. (A) Schematic diagram of MOG-induced EAE and treatment strategies with Dleu2-17aa, scrPEP, and Glatiramer. Mice received 100 μg of Dleu2-17aa or scrPEP every 3 days via i.v. injection or 150 μg of Glatiramer every day for seven times via s.c. on days 9 to 15. (B) Clinical scores were examined daily from day 9 using a scoring system ranging from 0 (no sign) to 5 (complete paralysis or dead). The x-axis represents experimental days, and the y-axis represents symptom severity (n = 8–9). (C) Representative Luxol fast blue (LFB) and hematoxylin and eosin staining (H&E) staining sections for treated EAE spinal cord. Scale bars: 100 μm. (D) Histopathology scores of inflammations and demyelination in treated EAE mice spinal cord using a scoring system ranging from 0 (no inflammatory cells or demyelination) to 4 (extensive inflammatory cells infiltration or confluent foci of demyelination) (n = 5–8). (E) Representative dot plots (left panel) and frequency (right panel) of CD44^hiCD62L^lo activated T cells, Foxp3^+ Treg cells, IL-17A^+ Th17 cells, and IFN-γ^+ Th1 cells gated on CD4^+ T cells in the spleen 14 days post immunization of MOG (n = 3). (F) Representative dot plots and frequency of CD4^+, Foxp3^+ Treg cells, and IFN-γ^+ Th1 cells gated on CD4^+ T cells in the CNS 14 days post immunization of MOG (n = 3). Data information: n indicates biological replicate. Error bars are mean ± SEM; *P < 0.05, **P < 0.01, and ***P < 0.001, n.s. indicates no significant difference. Statistical analysis was by two-way ANOVA for (B) and two-tailed Student’s t-test for (D–F). Source data are available online for this figure. TEXT PRINTED IN THE PICTURE: (E) scrPEP: Spleen: CD62L-PE-DF594 / CD44-PE: 78.2; Spleen: Foxp3-PE / CD4-APC: 7.38; Spleen: IFN-γ-Percp-cy5.5 / Il-17A-FITC: 4.67; Spleen: IFN-γ-Percp-cy5.5 / Il-17A-FITC: 0.18; Spleen: IFN-γ-Percp-cy5.5 / Il-17A-FITC: 94.7; Spleen: IFN-γ-Percp-cy5.5 / Il-17A-FITC: 0.44 | (E) Dleu2-17aa: Spleen: CD62L-PE-DF594 / CD44-PE: 37.2; Spleen: Foxp3-PE / CD4-APC: 12.9; Spleen: IFN-γ-Percp-cy5.5 / Il-17A-FITC: 2.83; Spleen: IFN-γ-Percp-cy5.5 / Il-17A-FITC: 0.26; Spleen: IFN-γ-Percp-cy5.5 / Il-17A-FITC: 96.1; Spleen: IFN-γ-Percp-cy5.5 / Il-17A-FITC: 0.79 | (F) scrPEP: CNS: FSC / CD4-APC: 9.03; CNS: Foxp3-PE / CD4-APC: 8.47; CNS: IFN-γ-Percp-cy5.5 / Il-17A-FITC: 22.9; CNS: IFN-γ-Percp-cy5.5 / Il-17A-FITC: 2.00; CNS: IFN-γ-Percp-cy5.5 / Il-17A-FITC: 69.7; CNS: IFN-γ-Percp-cy5.5 / Il-17A-FITC: 5.44 | (F) Dleu2-17aa: CNS: FSC / CD4-APC: 3.33; CNS: Foxp3-PE / CD4-APC: 15.5; CNS: IFN-γ-Percp-cy5.5 / Il-17A-FITC: 13.9; CNS: IFN-γ-Percp-cy5.5 / Il-17A-FITC: 2.65; CNS: IFN-γ-Percp-cy5.5 / Il-17A-FITC: 77.7; CNS: IFN-γ-Percp-cy5.5 / Il-17A-FITC: 5.79 DOUBTS OF THE COPYIST ABOUT THIS PICTURE: Panels E and F: the gate and quadrant numbers in the dot plots are printed with no measure or unit; the tissue heading and the axis labels of each plot are written in front of them. For the quadrant plots the order is upper left, upper right, lower left, lower right. / Panels E and F: the gate numbers are in small print, so 3, 5, 6, 8 and 9 are best readings: E scrPEP 78.2, 7.38, 4.67, 0.18, 94.7; E Dleu2-17aa 37.2, 12.9, 2.83, 0.26, 96.1, 0.79; F scrPEP 9.03, 8.47, 22.9, 69.7, 5.44; F Dleu2-17aa 3.33, 15.5, 13.9, 2.65, 5.79.
For active EAE immunization, myelin oligodendrocyte glycoprotein peptide (MOGp35–55, […], GenScript) was emulsified in complete Freund adjuvant (Sigma-Aldrich). An equivalent of 300 μg MOG peptide was injected per mouse subcutaneously followed by 200 ng of pertussis toxin (Merck-Calbiochem) injection intravenously on day 0 and day 2 of immunization. […]

Sequence: ARGPARRMRGGRRRRLR [scrPEP, scrambled control peptide of Dleu2-17aa]
- Relative luciferase activity ([1]; with Smad3 vector, replicate 4): 1.896
- Relative luciferase activity ([1]; with Smad3 vector, replicate 5): 1.262
- Relative luciferase activity ([1]; without Smad3 vector, replicate 4): 0.7583
- Relative luciferase activity ([1]; without Smad3 vector, replicate 5): 0.8478
- CD4+ / Live Cells(%) ([2]; replicate 1): 9.03%
- Foxp3+/ CD4+ Cells (%) ([2]; replicate 1): 8.94%
- IFN-γ+/ CD4+ Cells(%) ([2]; replicate 1): 22.8%
- CD4+ / Live Cells(%) ([2]; replicate 2): 10.1%
- Foxp3+/ CD4+ Cells (%) ([2]; replicate 2): 9.11%
- IFN-γ+/ CD4+ Cells(%) ([2]; replicate 2): 22.9%
- CD4+ / Live Cells(%) ([2]; replicate 3): 9.74%
- Foxp3+/ CD4+ Cells (%) ([2]; replicate 3): 8.47%
- IFN-γ+/ CD4+ Cells(%) ([2]; replicate 3): 23.8%
